Results: paper PMC7503767, “Alkoxyamines Designed as Potential Drugs against Plasmodium and Schistosoma Parasites” (Molecules, 2020)
Read-outs that look alike come from different tables or passages of the source.

What was measured:
Vero cells = experiment: Cytotoxicity assay (MTT); conditions: for IC50: read-out: Cytotoxicity Mean IC50, Vero cell lines, 48 h, MTT; for Selectivity Index: ratio cytotoxicity (Vero)/activity on Plasmodium
Experimental: (§1) Vero cells were cultured in MEM (Dutscher, Brumath, France) supplemented with 10% fetal bovine serum, 1× non-essential amino acids, 100 U/mL, 100 µg/mL penicillin/streptomycin, and 2 mM L-glutamine at 37 °C in a humidified 5% CO2 atmosphere. […] At this time, each well was microscope-examined for detection of possible precipitate formation prior to remove the supernatant by flicking the plate. 100 µL of a 0.5 mg/mL PBS-dissolved MTT tetrazolium (stock solution at 5 mg/mL) was then added to each well [48]. The plates were then incubated for 1 h at 37 °C and 5% CO2 prior to removing the supernatant and adding 100 µL of DMSO. Plates were gently shaken to dissolve formazan crystals resulting from the MTT tetrazolium reduction by living cells and read at 570 nm with BioTek µQuant Microplate Spectrophotometer.

[1] = system: P. falciparum chloroquine-resistant strain FcB1-Columbia; experiment: Antiplasmodial screen at 10 µM and chemosensitivity assay (SYBR Green I), FcB1-Columbia; assay type: cell-based, Plasmodium falciparum
Adult S. mansoni = experiment: In vitro antischistosomal activity on adult worms; assay type: cell-based, Schistosoma mansoni; conditions: for Mean (±SD) survival time – Adult S. mansoni / Time for the death of 100% worms: 100 µg/mL; for Mean (±SD) survival time – Adult S. mansoni: observation up to 8 h (Table S1); for Time for the death of 100% worms / S. mansoni Mean Survival Time: adult S. mansoni, observation up to 8 h; for S. mansoni Mean Survival Time: single dose 100 µg/mL
Excerpt: The NMRI strain of Schistosoma mansoni was used for the experimentations. The parasite was maintained on an albino variety of Biomphalaria glabrata from Brazil (intermediate host) and in Golden Hamsters, Mesocricetus auratus (Janvier Labs, Le Genest-Saint-Isle, France). Detailed methods, for mollusk and hamster infections and for parasite recovery, were previously described.
Adult worms were recovered between 42 and 47 days after infection by hepatic perfusion technique. Twenty to fifty adult worms were disposed in 12-well Falcon® plate containing 2 mL of RPMI 1640 (supplemented with L-glutamine and Hepes 25 mM) and stored in an incubator chamber (37 °C; 5% CO2). Drug preparation started with dissolution of the drug in DMSO to give a 100 mg/mL stock solution. The dilution was complemented with Tween 80 and RPMI in order to obtain the following final ratio dilution: RPMI 1640/Tween 80/DMSO, 1000/0.95/3.8, v/v/v. The drug solution was added to Falcon plates that contained adult worms. The S. mansoni cultures were then incubated with each drug at a final concentration of 100 µg/mL. Positive control was carried out with a solution of praziquantel (Merck KGaA, Darmstadt, Germany) at a concentration of 100 µg/mL. Negative control was carried out with the same RPMI 1640/Tween 80/DMSO solution, but without any drug. Each test was performed in duplicate. Every hour, moving worms were counted in order to define the percentage of survivors. Parasites showing no body contractions during a 30 s observation were considered as dead. Observations were extended to 8 h. Mean survival times (± standard deviation) were calculated for each drug using Kaplan–Meier survival analyses.

[2] = system: P. falciparum F32-TEM (artemisinin-sensitive strain); experiment: Standard chemosensitivity assay (SYBR Green I), F32-TEM; assay type: cell-based, Plasmodium falciparum
Experimental: (§2) F32-ART5, an artemisinin-resistant strain and F32-TEM, an artemisinin-sensitive strain, were obtained from the parental clone F32-Tanzania, respectively under regular drug pressure cycles of increasing artemisinin concentrations for 5 years and without any artemisinin pressure. After these drug pressure cycles allowing selection of the F32-ART5 strain, regular drug pressures were performed to maintain its phenotype. […] Briefly, parasites were cultured in RPMI 1640 (Fisher Scientific, Waltham, Illkirch-Graffenstaden, France) supplemented with 5% type AB human serum (Etablissement français du Sang, Toulouse, France) and adjusted at a parasitemia of 1% and 2% hematocrit with type O human at 37 °C and 5% CO2. Parasite development was daily monitored by Giemsa staining.
(§3) Briefly, for the determination of IC50 values, the chemosensitivity assay was carried out in 96-well culture plates on D-sorbitol ring-stage synchronized parasites and antiplasmodial activities were evaluated using the SYBR Green I method. Drug testing was performed in triplicates in a dose range of 5 to 7 concentrations. […] Parasites were left to proliferate with the given compounds for 48 h at 37 °C and 5% CO2. After this period, pellets were washed 3 times in sterile PBS prior to putting the plates at −20 °C overnight to lyse all red blood cells. The following day, the plates were thawed at room temperature, 100 µL of each well was transferred into a black 96-well plate to which another 100 µL of 2× PBS-diluted SYBR Green I (Sigma-Aldrich) was added and left to incubate for 2 h at room temperature prior to reading the plates on BioTek FL× 800 Microplate Fluorescence Reader (λexcitation = 485 nm, λemission = 528 nm).
(§4) IC50 values were determined using GraphPad Prism by drawing the curve % inhibition vs. [Drug] and using a four-parameter dose–response curve with the following equation: Y=Bottom+ Top−Bottom/1+x^Hill Slope/IC50Hill Slope

[3] = system: P. falciparum F32-ART5 (artemisinin-resistant strain); experiment: Standard chemosensitivity assay (SYBR Green I), F32-ART5; assay type: cell-based, Plasmodium falciparum; conditions: ^1 n = 1, ^2 n = 2
Experimental: as §2, §3, §4

[4] = Homolysis of the NO–C bond measured by EPR
Experimental: Homolysis rate constants kd’ were measured by EPR and estimated using Equation (1) as reported many times in the literature. Further, Ea and kd were estimated using Equation (2). (1) ln([nitroxide]∞−[nitroxide]t/[nitroxide]∞)=−kd·t (2) Ea=−RT ln([…] kd′ )

Cytotoxicity assay (MTT) = conditions: African green monkey
Experimental: as §1

[5] = FcB1-Columbia strain, read-out: IC50 on P. falciparum
[6] = 48 h, ^1 n = 1, ^2 n = 2, read-out: P. falciparum Strains Mean IC50, F32-TEM
[7] = 48 h, read-out: P. falciparum Strains Mean IC50, F32-ART5
[8] = Plasmodium falciparum, FCB1, read-out: IC50 on P. falciparum, FcB1-Columbia strain
[9] = read-out: P. falciparum Strains Mean IC50, F32-TEM, 48 h, ^1 n = 1, ^2 n = 2
[10] = read-out: P. falciparum Strains Mean IC50, F32-ART5, 48 h
[11] = Cytotoxicity Mean IC50, Vero cell lines, 48 h, MTT
[12] = Plasmodium falciparum, F32, 48 h, read-out: P. falciparum Strains Mean IC50, F32-TEM, 48 h, ^1 n = 1, ^2 n = 2
[13] = Plasmodium falciparum, F32, 48 h, read-out: P. falciparum Strains Mean IC50, F32-ART5, 48 h

Row | Structure (SMILES) | IC50 (Vero cells) | IC50 [1, 5] | Mean (±SD) survival time – Adult S. mansoni (Adult S. mansoni) | Time for the death of 100% worms (Adult S. mansoni) | S. mansoni Mean Survival Time (Adult S. mansoni) | IC50 [3, 7] | Selectivity Index (Vero cells) | IC50 [2, 12] | IC50 [3, 13] | other results
1 | CCOP(=O)(OCC)C(N(OC(C)c1ccc2ccc3cccnc3c2n1)C(C)(C)C)C(C)(C)C (centres unmarked) [1J] | 6200 ± 1200 nM | 3100 ± 1100 nM | 1.1 ± 0.05 h | 2 h | 1.1 ± 0.1 h | 2300 nM | – | – | – | IC50 [2, 6]: 2900 nM
2 | CCOP(=O)(OCC)C(N(OC(C)c1ccnc2c1ccc1cccnc12)C(C)(C)C)C(C)(C)C (centres unmarked) [1K] | 1100 ± 700 nM | 1300 ± 300 nM | 1.1 ± 0.04 h | 2 h | 1.1 ± 0.0 h | 1600 nM | – | – | – | –
3 | CCOP(=O)(OCC)C(N(OC(C)c1cc(-c2ccccn2)nc(-c2ccccn2)c1)C(C)(C)CO)C(C)(C)C (centres unmarked) [2F] | – | – | – | – | 2.1 to 2.5 h | – | 1 | – | – | IC50 [1, 8]: 200 to 300 nM; IC50 ([2]; Plasmodium falciparum, F32, read-out: IC50 on the F32 strains, F32-TEM and F32-ART5 taken together): 400 to 600 nM
4 | CCOP(=O)(OCC)C(N(OC(C)c1ccc2ccc3cccnc3c2n1)C(C)(C)CO)C(C)(C)C (centres unmarked) [2J] | 17000 ± 6300 nM | 2500 ± 1500 nM | 1.0 ± 0.0 h | 1 h | 1.0 ± 0.0 h | 4600 nM | – | – | – | IC50 [2, 6]: 5000 nM
5 | CC(ON1C(C)(C)CCCC1(C)C)c1ccncc1 (centres unmarked) [9a] | 40000 ± 13000 nM | 8000 ± 3000 nM | 3.0 ± 0.0 h | 3 h | 3.0 ± 0.0 h | 13000 nM | – | – | – | IC50 [2, 6]: 7500 nM
6 | CCOP(=O)(OCC)C(N(OC(C)c1cc(-c2ccccn2)nc(-c2ccccn2)c1)C(C)(C)CO)C(C)(C)C (centres unmarked) [(RR/SS)-2F, Diethyl(1-((1-([2,2′:6′,2′′-terpyridin]-4′-yl)ethoxy)(1-hydroxy-2-methylpropan-2-yl)amino)-2,2-dimethylpropyl)phosphonate] | 700 ± 300 nM | – | – | – | 2.5 ± 0.2 h | – | 1 | – | – | IC50 ([1]; read-out: IC50 on P. falciparum, FcB1-Columbia strain): 200 nM; IC50 [2, 9]: 500 ± 100 nM; IC50 [3, 10]: 400 ± 100 nM; activation energy Ea ([4]; MeOH/water 1:1 pH = 7.4): 28.39 kcal/mol; re-estimated homolysis rate constant kd at 120 °C ([4]; MeOH/water 1:1 pH = 7.4): 38.9 10^−3 s^−1; half-lifetime t1/2 at 37 °C ([4]; MeOH/water 1:1 pH = 7.4 (aqueous medium)): 84 h; homolysis rate constant kd′ ([4]; MeOH/water 1:1 pH = 7.4, 81 °C): 7.1 10^−4s^−1; activation energy Ea ([4]; t-BuPh): 28.42 kcal/mol; half-lifetime t1/2 at 37 °C ([4]; t-BuPh): 84 h; re-estimated homolysis rate constant kd at 120 °C ([4]; t-BuPh): 38.4 10^−3 s^−1; homolysis rate constant kd′ ([4]; t-BuPh, 81 °C): 7.0 10^−4s^−1
7 | CCOP(=O)(OCC)C(N(OC(C)c1cc(-c2ccccn2)nc(-c2ccccn2)c1)C(C)(C)C(=O)O)C(C)(C)C (centres unmarked) [(RR/SS)-4F, 2-((1-([2,2′:6′,2′′-Terpyridin]-4′-yl)ethoxy)(1-(diethoxyphosphoryl)-2,2-dimethylpropyl)amino)-2-methylpropanoic acid] | 8100 nM | – | > 8 h | > 8 h | > 8 h | – | 2 | – | – | IC50 [2, 9]: 4600 nM; IC50 [3, 10]: 4600 nM
8 | CCOP(=O)(OCC)C(N(OC(C)c1cc(-c2ccccn2)nc(-c2ccccn2)c1)C(C)(C)C=O)C(C)(C)C (centres unmarked) [(RR/SS)-7F, Diethyl(1-((1-([2,2′:6′,2′′-terpyridin]-4′-yl)ethoxy)(2-methyl-1-oxopropan-2-yl)amino)-2,2-dimethylpropyl)phosphonate] | 1200 ± 1300 nM | – | – | 3 h | 2.5 ± 0.1 h | – | 1 | – | – | IC50 [2, 9]: 940 nM; IC50 [3, 10]: 850 nM
9 | CCOP(=O)(OCC)C(N(OC(C)c1cc(-c2ccccn2)nc(-c2ccccn2)c1)C(C)(C)C(=O)O)C(C)(C)C (centres unmarked) [(RS/SR)-4F, 2-((1-([2,2′:6′,2′′-Terpyridin]-4′-yl)ethoxy)(1-(diethoxyphosphoryl)-2,2-dimethylpropyl)amino)-2-methylpropanoic acid] | – | – | – | 7 h | 5.2 ± 0.2 h | – | 4 | 2900 nM | 4700 nM | IC50 at 48 h (Cytotoxicity assay (MTT); [11]): 15000 ± 5000 nM; IC50 [1, 8]: 2900 nM
10 | CCOP(=O)(OCC)C(N(OC(C)c1cc(-c2ccccn2)nc(-c2ccccn2)c1)C(C)(C)C=O)C(C)(C)C (centres unmarked) [(RS/SR)-7F, Diethyl(1-((1-([2,2′:6′,2′′-terpyridin]-4′-yl)ethoxy)(2-methyl-1-oxopropan-2-yl)amino)-2,2-dimethylpropyl)phosphonate] | – | – | – | 3 h | 2.7 ± 0.1 h | – | 0.6 | 1300 nM | 1400 nM | IC50 at 48 h (Cytotoxicity assay (MTT); [11]): 900 ± 400 nM
11 | CCN(CC)CCCC(C)Nc1ccnc2cc(Cl)ccc12 (centres unmarked) [Chloroquine, chloroquine, reference compound] | – | – | – | – | – | – | – | 60 ± 20 nM | 60 ± 30 nM | IC50 at 48 h (Cytotoxicity assay (MTT)): 190000 ± 56000 nM; IC50 ([1]; Plasmodium falciparum, FCB1, read-out: IC50 on P. falciparum): 160 ± 36 nM
12 | CCc1cc(-c2ccccn2)nc(-c2ccccn2)c1 [compound 22, 4′-ethyl terpyridine] | – | – | > 8 h | > 8 h | >8 h | – | 22 | 240 nM | 230 nM | IC50 at 48 h (Cytotoxicity assay (MTT); Vero cells): 5300 ± 4500 nM; IC50 ([1]; Plasmodium falciparum, FcB1-Columbia strain, read-out: IC50 on P. falciparum): 910 ± 60 nM
